Consider one compound from US11891415B2, “Depsipeptides and uses thereof” (NovoBiotic Pharmaceuticals, LLC, priority 2017, dated 2024).

Molecules are shown by their SMILES.

One assay concerns S. aureus ATCC 33591. Description: Neutropenic mouse thigh infection model. It is filed as in vivo. To be noted: single dose of 50 mg/kg, thigh load at 26 hours. Here is the method: The compound of Formula (III) was next evaluated in a neutropenic mouse thigh infection model against S. aureus ATCC 33591. For the study, mice challenged with S. aureus ATCC 33591 were intravenously administered two 5 mg/kg, 10 mg/kg, 20 mg/kg and 30 mg/kg doses of the compound of Formula (III) at 2 and 4 hours post-infection, or vancomycin as a single dose of 50 mg/kg as a control. The bacterial load in the thigh at 26 hours post-infection was measured.

The next assay deals with MRSA ATCC 33591. Description: Mouse septicemia model. To be noted: CD-1 female mice, MRSA ATCC 33591, 2.5 mg/kg intravenous one hour post infection.

In the case of `CN[C@H](CC(C)C)C(=O)N[C@H]1C(=O)N[C@@H](CC(N)=O)C(=O)N[C@H]2C(=O)N[C@H]3C(=O)N[C@H](C(=O)N[C@H](C(=O)O)c4cc(O)cc(O)c4-c4cc3ccc4O)[C@H](O)c3ccc(c(Cl)c3)Oc3cc2cc(c3O[C@@H]2O[C@H](CO)[C@@H](O)[C@H](O)[C@H]2O[C@H]2C[C@](C)(N)[C@H](O)[C@H](C)O2)Oc2ccc(cc2Cl)[C@H]1O` [vancomycin], in the assay on S. aureus ATCC 33591, the “CFU reduction from the 2 hour infection controls” value is reported as 0.54 log10 CFU and the “CFU reduction from the 26 hour infection controls” value was 3.65 log10 CFU. In addition, in the assay with MRSA ATCC 33591, the survival result is listed as “all survived”.
